According to patent publication US7994127B2, “Treatment of rett syndrome” (Massachusetts Institute of Technology, priority 2007, dated 2011):

How the values were obtained:
[1] = tested on: synaptic transmission; test: Synaptic transmission during direct application of the molecules; assay type: cell-based, mouse; conditions: direct application of the molecule
Source text: rhIGF1 produced a similar improvement as (1-3)IGF-1 in all maturational signatures measured, including (A) synaptic transmission levels, and (B) circuit stability (by preventing ocular dominance plasticity) in P60 MeCP2 KO mice.
The above data focused on the (1-3)IGF-1 fragment of IGF1 to promote IGF1 signaling. We also have tested the effect of the full-length IGF1 peptide already approved for pediatric administration in human patients (for short stature indications). We have verified a correspondence in the effects of (1-3)IGF-1 and recombinant human IGF1 (rhIGF1).

[2] = tested on: rat hippocampal cultures; conditions: Ramsey et al., 2005; Xing et al., 2007; cited from earlier work
[3] = in vivo; cited from earlier work
[4] = tested on: visual cortex of adult MeCP2+/− mice; test: Ocular dominance plasticity after monocular deprivation, optical imaging of intrinsic signals; assay type: in vivo, mouse; conditions: 180 μg/kg/day i.p. starting at 2 weeks; P60 MeCP2 KO mice

Row | Molecule | synaptic activity / synaptic transmission levels (FIG. 9A) [1] | excitatory postsynaptic currents [2] | crossing the blood-brain barrier [3] | maturation of cortical circuitry during ocular dominance plasticity (FIG. 9B) [4]
1 | rhIGF1: full-length IGF1 peptide already approved for pediatric administration in human patients; recombinant human IGF1 | striking enhancements of synaptic activity | elevate excitatory postsynaptic currents significantly | capable of crossing the blood-brain barrier | promoted to similar degrees
2 | BDNF: brain derived neurotrophic factor (protein, UniProt P23560 19-247, looked up) Neurotrophic factor BDNF …: APMKEANIRGQGGLAYPGVRTHGTLESVNGPKAGSRGLTSLADTFEHVIEELLDEDQKVRPNEENNKDADLYTSRVMLSSQVPLEPPLLFLLEEYKNYLDAANMSMRVRRHSDPARRGELSVCDSISEWVTAADKKTAVDMSGGTVTVLEKVPVSKGQLKQYFYETKCNPMGYTKEGCRGIDKRHWNSQCRTTQSYVRALTMDSKKRIGWRFIRIDTSCVCTLTIKRGR | – | – | poor efficiency at crossing the blood brain barrier | –
